Results as given in PubChem BioAssay AID1259411 (Chemical Carcinogenesis Research Information System (CCRIS), 2018).
Activity calls are given as the source filed them. The rule behind the calls is not given here.

Test system: rodent carcinogenicity bioassays, tumor incidence
Assay: CCRIS carcinogenicity studies
How it was run: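 NCI-built, expert-reviewed records of carcinogenicity and related test outcomes (mutagenicity, tumor promotion/inhibition) compiled from published and report sources, historical span 1985-2011, not updated.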

CC(C)(C)O
carcinogen call (Species: MOUSE, Strain/Sex: B6C3F1/FEMALE, Route: ORAL, Dose: 0, 5, 10, 20 MG/ML IN DRINKING WATER FOR 103 WK (STUDY DURATION: 103 WK), Dose: 0, 5, 10, 20 MG/ML IN DRINKING WATER FOR 103 WK (STUDY DURATION: 103 WK), Tumor Site: Type of Lesion: THYROID GLAND: FOLLICULAR CELL ADENOMA): active; positive | carcinogen call (Species: MOUSE, Strain/Sex: B6C3F1/MALE, Route: ORAL, Dose: 0, 5, 10, 20 MG/ML IN DRINKING WATER FOR 103 WK (STUDY DURATION: 103 WK), Dose: 0, 5, 10, 20 MG/ML IN DRINKING WATER FOR 103 WK (STUDY DURATION: 103 WK), Tumor Site: Type of Lesion: THYROID GLAND: FOLLICULAR CELL ADENOMA OR CARCINOMA): equivocal | carcinogen call (Species: RAT, Strain/Sex: F344/FEMALE, Route: ORAL, Dose: 0, 2.5, 5, 10 MG/ML IN DRINKING WATER FOR 103 WK (STUDY DURATION: 103 WK), Dose: 0, 2.5, 5, 10 MG/ML IN DRINKING WATER FOR 103 WK (STUDY DURATION: 103 WK)): inactive; negative | carcinogen call (Species: RAT, Strain/Sex: F344/MALE, Route: ORAL, Dose: 0, 1.25, 2.5, 5 MG/ML IN DRINKING WATER FOR 103 WK (STUDY DURATION: 103 WK), Dose: 0, 1.25, 2.5, 5 MG/ML IN DRINKING WATER FOR 103 WK (STUDY DURATION: 103 WK), Tumor Site: Type of Lesion: KIDNEY (RENAL TUBULE): ADENOMA OR CARCINOMA): active; positive

O=S1(=O)CCCO1
carcinogen call (Species: MOUSE, Strain/Sex: ICR/FEMALE, Route: SUBCUTANEOUS, Dose: 0.3 MG IN WATER 1/WK FOR 63 WK, Tumor Site: Type of Lesion: INJECTION SITE: ADENOACANTHOMA, SARCOMA): active; positive | carcinogen call (Species: RAT, Strain/Sex: STRAIN-BD, Route: SUBCUTANEOUS, Dose: 15, 30 MG/KG IN ARACHIS OIL 1/WK FOR 1 YR, Tumor Site: Type of Lesion: INJECTION SITE: MYOSARCOMA, FIBROSARCOMA): active; positive | carcinogen call (Species: RAT, Strain/Sex: STRAIN-BD, Route: SUBCUTANEOUS, Dose: 15, 30 MG/KG IN WATER 1/WK FOR 1 YR, Tumor Site: Type of Lesion: INJECTION SITE: SARCOMA): active; positive | carcinogen call (Species: RAT, Strain/Sex: STRAIN-CD/FEMALE, Route: GAVAGE, Dose: 28, 56 MG/KG IN WATER 2/WK FOR 78 WK (LOW DOSE) OR 32 WK (HIGH DOSE), Tumor Site: Type of Lesion: BRAIN (CEREBELLUM, CEREBRUM): MALIGNANT GLIOMA, MAMMARY GLAND: ADENOCARCINOMA): active; positive | carcinogen call (Species: RAT, Strain/Sex: STRAIN-CD/MALE, Route: GAVAGE, Dose: 28, 56 MG/KG IN WATER 2/WK FOR 78 WK (LOW DOSE) OR 32 WK (HIGH DOSE), Tumor Site: Type of Lesion: BRAIN (CEREBELLUM, CEREBRUM): MALIGNANT GLIOMA): active; positive

O=NN1CCOC1
carcinogen call (Species: HAMSTER, Strain/Sex: SYRIAN/MALE, Route: INTRAGASTRIC, Dose: 0, 23 MG/ML IN 0.2 ML STERILIZED WATER 1/WK FOR 35 WK (TOTAL DOSE 161 MG) (STUDY DURATION: LIFESPAN), Tumor Site: Type of Lesion: LIVER: HEPATOCELLULAR CARCINOMA, ADENOMA, HEMANGIOSARCOMA, CHOLANGIOCARCINOMA): active; positive | carcinogen call (Species: RAT, Strain/Sex: F344/FEMALE, Route: ORAL, Dose: 35 MG/L IN DRINKING WATER FOR 50 WK, Tumor Site: Type of Lesion: LIVER: HEPATOCELLULAR CARCINOMA, HEMANGIOENDOTHELIAL SARCOMA): active; positive

Cc1ccnc2ccccc12
carcinogen call (Species: MOUSE, Strain/Sex: CD-1/FEMALE, Route: INTRAPERITONEAL, Dose: 0, 0.25, 0.5, 1.0 UMOL IN DMSO TO NEWBORN MICE ON DAYS 1, 8 AND 15 OF LIFE RESPECTIVELY (TOTAL DOSE: 1.75 UMOL) (STUDY D, Dose: 0, 0.25, 0.5, 1.0 UMOL IN DMSO TO NEWBORN MICE ON DAYS 1, 8 AND 15 OF LIFE RESPECTIVELY (TOTAL DOSE: 1.75 UMOL) (STUDY D): inactive; negative | carcinogen call (Species: MOUSE, Strain/Sex: CD-1/MALE, Route: INTRAPERITONEAL, Dose: 0, 0.25, 0.5, 1.0 UMOL IN DMSO TO NEWBORN MICE ON DAY 1,8 AND 15 OF LIFE RESPECTIVELY (TOTAL DOSE: 1.75 UMOL) (STUDY DUR, Dose: 0, 0.25, 0.5, 1.0 UMOL IN DMSO TO NEWBORN MICE ON DAY 1,8 AND 15 OF LIFE RESPECTIVELY (TOTAL DOSE: 1.75 UMOL) (STUDY DUR, Tumor Site: Type of Lesion: LIVER: ADENOMA, HEPATOMA): active; positive | carcinogen call (Species: RAT, Strain/Sex: SPRAGUE-DAWLEY/FEMALE, Route: SUBCUTANEOUS, Dose: 0, 200 UMOL/KG INTO SUPRASCAPULAR REGION ON DAY 1 OF LIFE FOLLOWED BY 0, 100 UMOL 1/WK AT WK 2-7 THEN 0, 200 UMOL ONCE A, Dose: 0, 200 UMOL/KG INTO SUPRASCAPULAR REGION ON DAY 1 OF LIFE FOLLOWED BY 0, 100 UMOL 1/WK AT WK 2-7 THEN 0, 200 UMOL ONCE A): inactive; negative | carcinogen call (Species: RAT, Strain/Sex: SPRAGUE-DAWLEY/MALE, Route: SUBCUTANEOUS, Dose: 0, 200 UMOL/KG INTO SUPRASCAPULAR REGION ON DAY 1 OF LIFE FOLLOWED BY 0, 100 UMOL 1/WK AT WK 2-7 THEN 0, 200 UMOL ONCE A, Dose: 0, 200 UMOL/KG INTO SUPRASCAPULAR REGION ON DAY 1 OF LIFE FOLLOWED BY 0, 100 UMOL 1/WK AT WK 2-7 THEN 0, 200 UMOL ONCE A): inactive; negative

C=C(C)C(N)=O
carcinogen call (Species: MOUSE, Strain/Sex: DDY, Route: INTRAPERITONEAL, Dose: 0, 2.35 MMOL/KG 1/2 D FOR 5 DOSES (STUDY DURATION: 6 MO), Tumor Site: Type of Lesion: LUNG: ADENOMA): active; positive | carcinogen call (Species: MOUSE, Strain/Sex: DDY, Route: INTRAPERITONEAL, Dose: 0, 2.35 MMOL/KG 1/D FOR 5 D (STUDY DURATION: 6 MO), Tumor Site: Type of Lesion: LUNG: ADENOMA): active; positive

ClC(Br)Br
carcinogen call (Species: MOUSE, Strain/Sex: B6C3F1/FEMALE, Route: GAVAGE, Dose: 0, 50, 100 MG/KG IN CORN OIL 5 D/WK FOR 105 WK (STUDY DURATION: 105 WK), Dose: 0, 50, 100 MG/KG IN CORN OIL 5 D/WK FOR 105 WK (STUDY DURATION: 105 WK), Tumor Site: Type of Lesion: LIVER: HEPATOCELLULAR ADENOMA, HEPATOCELLULAR ADENOMA OR CARCINOMA): active; positive | carcinogen call (Species: MOUSE, Strain/Sex: B6C3F1/MALE, Route: GAVAGE, Dose: 0, 50, 100 MG/KG IN CORN OIL 5 D/WK FOR 105 WK (STUDY DURATION: 105 WK), Dose: 0, 50, 100 MG/KG IN CORN OIL 5 D/WK FOR 105 WK (STUDY DURATION: 105 WK), Tumor Site: Type of Lesion: LIVER: HEPATOCELLULAR CARCINOMA, HEPATOCELLULAR ADENOMA OR CARCINOMA): equivocal | carcinogen call (Species: RAT, Strain/Sex: F344/FEMALE, Route: GAVAGE, Dose: 0, 40, 80 MG/KG IN CORN OIL 5 D/WK FOR 104 WK (STUDY DURATION: 105 WK), Dose: 0, 40, 80 MG/KG IN CORN OIL 5 D/WK FOR 104 WK (STUDY DURATION: 105 WK)): inactive; negative | carcinogen call (Species: RAT, Strain/Sex: F344/MALE, Route: GAVAGE, Dose: 0, 40, 80 MG/KG IN CORN OIL 5 D/WK FOR 104 WK (STUDY DURATION: 105 WK), Dose: 0, 40, 80 MG/KG IN CORN OIL 5 D/WK FOR 104 WK (STUDY DURATION: 105 WK)): inactive; negative

CO[Si](CCCOCC1CO1)(OC)OC (stereo not drawn)
carcinogen call (Species: MOUSE, Strain/Sex: C3H/MALE, Route: DERMAL, Dose: 0, 5 MG IN ACETONE 3/WK FOR DURATION OF STUDY (STUDY DURATION: LIFETIME)): inactive; negative

O=C(C1CCCCC1)N1CC(=O)N2CCc3ccccc3C2C1 (stereo not drawn)
carcinogen call (Species: HAMSTER, Strain/Sex: SYRIAN/MALE, Route: GAVAGE, Dose: 0, 300 MG/KG IN CORN OIL 1/5 WK FOR A TOTAL OF 5 DOSES (STUDY DURATION: 40 WK)): inactive; negative

O=[N+]([O-])c1cccc2c1ccc1c3ccccc3ccc21
carcinogen call (Species: MOUSE, Strain/Sex: ICR/FEMALE, Route: INTRAPERITONEAL, Dose: 0, 100 NMOL (TOTAL DOSE) ADMINISTERED IN 3 SUBDOSES OF 1/7, 2/7, AND 4/7 ON DAYS 1, 8 AND 15 OF LIFE, RESPECTIVELY (STUD): inactive; negative | carcinogen call (Species: MOUSE, Strain/Sex: ICR/MALE, Route: INTRAPERITONEAL, Dose: 0, 100 NMOL (TOTAL DOSE) ADMINISTERED IN 3 SUBDOSES OF 1/7, 2/7, AND 4/7 ON DAYS 1, 8 AND 15 OF LIFE, RESPECTIVELY (STUD): inactive; negative

COc1ccc(N)c(C)c1
carcinogen call (Species: MOUSE, Strain/Sex: B6C3F1/FEMALE, Route: GAVAGE, Dose: 0, 0.06, 0.11 G/KG (FOR 53 WK), Dose: 0, 0.06, 0.11 G/KG (FOR 53 WK)): inactive; negative | carcinogen call (Species: RAT, Strain/Sex: F344/FEMALE, Route: GAVAGE, Dose: 0, 0.08, 0.16 G/KG, Dose: 0, 0.08, 0.16 G/KG, Tumor Site: Type of Lesion: URINARY BLADDER: TRANSITIONAL CELL CARCINOMA): active; positive | carcinogen call (Species: RAT, Strain/Sex: F344/MALE, Route: GAVAGE, Dose: 0, 0.08, 0.16 G/KG, Dose: 0, 0.08, 0.16 G/KG, Tumor Site: Type of Lesion: URINARY BLADDER: TRANSITIONAL CELL CARCINOMA): active; positive
